Assay results reported in US11529361B2, “Halogenated salicylanilides for treating Clostridium infections” (UNION therapeutics A/S, priority 2015, dated 2022).
Values after ≈ are worked out from the molar mass of the structure shown. Where two headings read alike, the source gives them in different places.

How the values were obtained:
C. difficile = conditions: published data (footnote a); cited from earlier work
[1] = system: Clostridium difficile infection (CDAD); conditions: phase III clinical trials, versus vancomycin; cited from earlier work
[2] = system: 24 clinical isolate strains of C. difficile; assay: Additional MIC determinations, antibacterial activity by OD600 (Example 3); type: cell-based, Clostridium difficile
[3] = system: Clostridium difficile 7-6011209; type: cell-based
[4] = system: C. difficile clinical isolates; assay: MIC determination by microbroth dilution per CLSI guideline (Example 1); type: cell-based, Clostridium difficile; conditions: Clostridioides difficile
rats = conditions: p.o.; cited from earlier work

Row | Structure (SMILES) | MIC ([2]; strain 7-5085357 (ST028)) | MIC ([2]; strain 7-6011209 (ST002)) | MIC ([2]; strain 7-6778909 (ST016)) | MIC ([2]; strain 7-6854508 (ST013)) | MIC ([2]; strain 7-6870430 (ST001)) | MIC ([2]; strain 7-7104022 (ST103)) | MIC ([2]; strain 7-7116411 (ST005)) | MIC ([2]; strain 7-7124449 (ST009)) | MIC ([2]; strain 7-7149204 (ST006)) | MIC ([2]; strain 7-7150288 (ST003)) | MIC ([2]; strain 7-7150318 (ST059)) | MIC ([2]; strain 7-7150628 (ST034)) | MIC ([2]; strain 7-7150997 (ST049)) | MIC ([2]; strain 7-7154992 (ST139)) | MIC ([2]; strain 7-7200552 (ST017)) | MIC ([2]; strain 12055) | MIC ([2]; strain 12060) | MIC ([2]; strain 12061) | MIC ([2]; strain 12063) | MIC ([2]; strain 12064) | other results
1 | CCc1c(Cl)c(O)c(Cl)c(O)c1C(=O)O[C@H]1[C@H](O)[C@H](OC)[C@H](OC/C2=C\C=C\C[C@H](O)/C(C)=C/[C@H](CC)[C@@H](O[C@@H]3OC(C)(C)[C@@H](OC(=O)C(C)C)[C@H](O)[C@@H]3O)/C(C)=C/C(C)=C/C[C@@H]([C@@H](C)O)OC2=O)O[C@@H]1C [Fidaxomycin] | < 0.008 µg/mL | < 0.008 µg/mL | < 0.008 µg/mL | < 0.008 µg/mL | 0.016 µg/mL (≈ 0.0151 µM) | < 0.008 µg/mL | 2 µg/mL (≈ 1.89 µM) | < 0.008 µg/mL | < 0.008 µg/mL | < 0.008 µg/mL | < 0.008 µg/mL | < 0.008 µg/mL | < 0.008 µg/mL | < 0.008 µg/mL | < 0.008 µg/mL | < 0.008 µg/mL | < 0.008 µg/mL | < 0.008 µg/mL | < 0.008 µg/mL | < 0.008 µg/mL | Highest MIC observed (C. difficile): 1 ^ μg/mL; MIC90 (C. difficile): 0.5^a μg/mL; clinical cure of CDAD [1]: non-inferior to vancomycin; preventing recurrence of CDAD [1]: superior to vancomycin; MIC ([2]; strain 7-7363761 (ST008)): < 0.008 µg/mL; MIC ([2]; strain 12062): < 0.008 µg/mL; MIC ([2]; strain 12065): < 0.008 µg/mL; MIC ([2]; strain 12066): < 0.008 µg/mL; formation of heat-resistant spores over time [3]: suppressed formation of spores for the first 48 hours of the study
2 | O=C(Nc1ccc(Br)cc1)c1cc(Br)cc(Br)c1O [Tribromsalan, 3,4′,5-tribromosalicylanilide] | 0.016 µg/mL (≈ 0.0356 µM) | < 0.008 µg/mL | < 0.008 µg/mL | 0.031 µg/mL (≈ 0.0689 µM) | 0.016 µg/mL (≈ 0.0356 µM) | 1 µg/mL (≈ 2.22 µM) | < 0.008 µg/mL | 0.063 µg/mL (≈ 0.14 µM) | < 0.008 µg/mL | < 0.008 µg/mL | < 0.008 µg/mL | 0.031 µg/mL (≈ 0.0689 µM) | 0.16 µg/mL (≈ 0.356 µM) | 0.063 µg/mL (≈ 0.14 µM) | 0.25 µg/mL (≈ 0.556 µM) | 0.016 µg/mL (≈ 0.0356 µM) | 0.063 µg/mL (≈ 0.14 µM) | 0.016 µg/mL (≈ 0.0356 µM) | 0.016 µg/mL (≈ 0.0356 µM) | < 0.008 µg/mL | MIC ([4]; read-out: C. difficile Strain 7-6011209 MIC): 0.125 µg/mL (≈ 0.278 µM); MIC ([4]; read-out: C. difficile Strain 12055 MIC): 0.25 µg/mL (≈ 0.556 µM); MIC ([2]; strain 12062): < 0.008 µg/mL; MIC ([2]; strain 12065): 0.016 µg/mL (≈ 0.0356 µM); MIC ([2]; strain 12066): 0.031 µg/mL (≈ 0.0689 µM)
3 | Cc1ncc([N+](=O)[O-])n1CCO [Metronidazole] | 1 µg/mL (≈ 5.84 µM) | 0.031 µg/mL (≈ 0.181 µM) | 0.25 µg/mL (≈ 1.46 µM) | 1 µg/mL (≈ 5.84 µM) | 1 µg/mL (≈ 5.84 µM) | > 8 µg/mL | > 16 µg/mL | 2 µg/mL (≈ 11.7 µM) | 0.5 µg/mL (≈ 2.92 µM) | 0.063 µg/mL (≈ 0.368 µM) | 1 µg/mL (≈ 5.84 µM) | 0.5 µg/mL (≈ 2.92 µM) | 0.031 µg/mL (≈ 0.181 µM) | 1 µg/mL (≈ 5.84 µM) | 2 µg/mL (≈ 11.7 µM) | 1 µg/mL (≈ 5.84 µM) | 1 µg/mL (≈ 5.84 µM) | 1 µg/mL (≈ 5.84 µM) | 0.25 µg/mL (≈ 1.46 µM) | 0.031 µg/mL (≈ 0.181 µM) | Highest MIC observed (C. difficile): >32^a μg/mL; MIC90 (C. difficile): 1^a μg/mL; MIC ([2]; strain 12065): 1 µg/mL (≈ 5.84 µM); MIC ([2]; strain 12066): 1 µg/mL (≈ 5.84 µM)
4 | O=C(Nc1cc(Cl)cc(Cl)c1O)c1c(O)c(Cl)cc(Cl)c1Cl [Oxyclozanide] | 0.016 µg/mL (≈ 0.0399 µM) | < 0.008 µg/mL | < 0.008 µg/mL | < 0.008 µg/mL | < 0.008 µg/mL | < 0.008 µg/mL | 0.125 µg/mL (≈ 0.311 µM) | 0.031 µg/mL (≈ 0.0772 µM) | < 0.008 µg/mL | < 0.008 µg/mL | 0.016 µg/mL (≈ 0.0399 µM) | 0.31 µg/mL (≈ 0.772 µM) | < 0.008 µg/mL | < 0.008 µg/mL | 0.25 µg/mL (≈ 0.623 µM) | 0.016 µg/mL (≈ 0.0399 µM) | 0.031 µg/mL (≈ 0.0772 µM) | 0.016 µg/mL (≈ 0.0399 µM) | 0.016 µg/mL (≈ 0.0399 µM) | < 0.008 µg/mL | MIC ([4]; Table 3, strain 7-6011209, read-out: C. difficile Strain 7-6011209 MIC): 0.25 µg/mL (≈ 0.623 µM); MIC ([4]; Table 3, strain 12055, read-out: C. difficile Strain 12055 MIC): 0.25 µg/mL (≈ 0.623 µM); MIC ([2]; strain 12062): < 0.008 µg/mL; MIC ([2]; strain 12065): 0.031 µg/mL (≈ 0.0772 µM); MIC ([2]; strain 12066): 0.125 µg/mL (≈ 0.311 µM); LD50 (rats): 980 to 3519 mg/kg
